Measurements reported in patent US9365512B2, “Isoindoline derivatives, pharmaceutical compositions containing them, and their use in therapy” (AbbVie Deutschland GmbH & Co. KG, priority 2012, dated 2016).

Tests used:
[1] = Metabolic stability in human liver microsomes (microsomal clearance); type: in vitro ADME; conditions: 0.5 μM test substance, 0.25 mg microsomal protein/ml, pH 7.4, 37° C., NADPH
Protocol: The metabolic stability of a compound can be measured for example by incubating a solution of this compound with liver microsomes from particular species (for example rat, dog or human) and determining the half-life of the compound under these conditions (RS Obach, Curr Opin Drug Discov Devel. 2001, 4, 36-44). It is possible in this connection to conclude from an observed longer half-life that the metabolic stability of the compound is improved. The stability in the presence of human liver microsomes is of particular interest because it makes it possible to predict the metabolic degradation of the compound in the human liver. Compounds with increased metabolic stability (measured in the liver microsome test) are therefore probably also degraded more slowly in the liver. The slower metabolic degradation in the liver may lead to higher and/or longer-lasting concentrations (active levels) of the compound in the body, so that the elimination half-life of the compounds of the invention is increased. Increased and/or longer-lasting active levels may lead to a better activity of the compound in therapeutic treatment. […]
Metabolic stability was determined as follows:
0.5 μM test substance was preincubated together with human liver microsomes (0.25 mg of microsomal protein/ml) in 0.05 M potassium phosphate buffer of pH 7.4 in microtiter plates at 37° C. for 5 min. […] The samples were frozen until analyzed. The remaining concentration of undegraded test substance was determined by LC MSMS. The half-life (T½) was determined from the gradient of the signal of test substance/unit time plot, allowing to calculate the half-life of the test substance, assuming first order kinetics, from the decrease in the concentration of the compound with time. The microsomal clearance (mCl) was calculated from mCl=ln 2/T½/(content of microsomal protein in mg/ml)×1000 (modified from references: Di, The Society for Biomolecular Screening, 2003, 453-462; Obach, DMD, 1999 vol 27. N 11, 1350-1359).

[2] = molecular target: T1, human GlyT1c transporter (Homo sapiens, UniProt P48067); test: Radioligand binding assay using recombinant CHO cell membranes expressing human GlyT1; conditions: read-out: radioligand binding Kiapp
T1 construct: expressed in transfected cells; host or cells: CHO cells (recombinant; membranes)
T1 sequence (P48067 1-706): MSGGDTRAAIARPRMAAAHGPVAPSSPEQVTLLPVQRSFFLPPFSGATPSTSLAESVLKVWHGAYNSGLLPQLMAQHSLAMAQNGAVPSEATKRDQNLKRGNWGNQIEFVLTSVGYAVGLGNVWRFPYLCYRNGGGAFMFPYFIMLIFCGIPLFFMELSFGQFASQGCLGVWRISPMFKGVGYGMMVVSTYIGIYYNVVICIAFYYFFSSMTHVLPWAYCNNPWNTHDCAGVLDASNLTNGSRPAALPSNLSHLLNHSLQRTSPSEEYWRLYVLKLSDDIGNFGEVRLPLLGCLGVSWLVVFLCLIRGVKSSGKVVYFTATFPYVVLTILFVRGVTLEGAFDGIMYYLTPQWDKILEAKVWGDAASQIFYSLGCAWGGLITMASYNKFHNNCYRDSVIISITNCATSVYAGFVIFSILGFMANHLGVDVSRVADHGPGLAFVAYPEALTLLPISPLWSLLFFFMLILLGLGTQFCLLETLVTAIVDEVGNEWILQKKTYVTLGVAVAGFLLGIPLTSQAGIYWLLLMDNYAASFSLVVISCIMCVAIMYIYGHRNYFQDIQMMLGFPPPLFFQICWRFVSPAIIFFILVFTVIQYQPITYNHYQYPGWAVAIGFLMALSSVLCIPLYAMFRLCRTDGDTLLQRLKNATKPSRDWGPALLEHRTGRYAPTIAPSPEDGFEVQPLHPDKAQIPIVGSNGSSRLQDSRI
Protocol: 2. Radioligand Binding Assays Using Recombinant CHO Cell Membranes Expressing Human GlyT1:
Radioligand binding to human GlyT1c transporter-expressing membranes was determined as described in Mezler et al., Molecular Pharmacology 74:1705-1715, 2008.

Row | human mCl [1] | Ki [2] | SMILES
1 | <1 µL/min/mg | < 1000 nM | Cn1cnc(S(=O)(=O)NCc2ccc3c(c2)C(Cc2ccccc2)NC3)c1 (stereo not drawn) [Example 4, N-[(3-Benzylisoindolin-5-yl)methyl]-1-methyl-1H-imidazole-4-sulfonamide]
2 | <1 µL/min/mg | < 100 nM | Cn1cnc(S(=O)(=O)NCCOc2ccc3c(c2)C(Cc2ccccc2)NC3)c1 (stereo not drawn) [Example 5, N-[2-(3-Benzylisoindolin-5-yl)oxyethyl]-1-methyl-1H-imidazole-4-sulfonamide]
3 | <10 µL/min/mg | < 100 nM | Cn1cc(S(=O)(=O)NCCOc2ccc3c(c2)C(Cc2ccccc2)NC3)cn1 (stereo not drawn) [Example 7, N-[2-(3-Benzylisoindolin-5-yl)oxyethyl]-1-methyl-1H-pyrazole-4-sulfonamide]
